Data: US11304929B2, “Tosylacetate based compounds and derivatives thereof as PHGDH inhibitors” (priority 2017, dated 2022)
pIC50: −log10 of the molar value. Where two headings read alike, the source gives them in different places.

Target: PHGDH (Homo sapiens (Human), UniProt O43175)
Experiment: 3-Phosphoglycerate Dehydrogenase (PHGDH) Fluorescence Intensity Assay, run at two NAD/3-PG ratios: PHGDH_HIGH_NAD/3-PG (250 μM NAD/500 μM 3-PG) and PHGDH_500_NAD/3-PG (500 μM NAD/500 μM 3-PG)
Assay type: biochemical
[1] = 250 μM NAD/500 μM 3-PG, read-out: IC50 (PHGDH_HIGH_NAD/3-PG)
[2] = 500 μM NAD/500 μM 3-PG, read-out: IC50 (PHGDH_500_NAD/3-PG)

Sequence of PHGDH (O43175 2-533 limits assumed): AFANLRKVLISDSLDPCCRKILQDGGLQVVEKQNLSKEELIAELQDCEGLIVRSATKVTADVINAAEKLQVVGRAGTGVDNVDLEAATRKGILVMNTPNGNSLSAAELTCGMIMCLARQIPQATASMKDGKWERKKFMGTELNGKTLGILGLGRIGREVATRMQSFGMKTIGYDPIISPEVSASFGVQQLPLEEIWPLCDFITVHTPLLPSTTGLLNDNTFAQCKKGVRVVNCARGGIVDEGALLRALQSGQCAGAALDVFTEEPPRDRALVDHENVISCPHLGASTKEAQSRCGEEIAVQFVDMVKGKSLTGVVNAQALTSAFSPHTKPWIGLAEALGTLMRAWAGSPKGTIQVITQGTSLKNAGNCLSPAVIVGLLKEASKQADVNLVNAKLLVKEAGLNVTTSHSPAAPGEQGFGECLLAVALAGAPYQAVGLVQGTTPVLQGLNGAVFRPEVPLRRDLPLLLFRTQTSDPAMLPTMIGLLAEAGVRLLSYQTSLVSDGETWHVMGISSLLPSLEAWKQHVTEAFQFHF

SMILES | pIC50 [1] | pIC50 [2]
CCOC(=O)CS(=O)(=O)c1ccc([C@@H](C)NC(=O)c2cc(-c3ccccc3)nn2C)cc1 [Example 02-003, ethyl 2-{4-[(1R)-1-[(1-methyl-3-phenyl-1H-pyrazol-5-yl)formamido]ethyl]benzenesulfonyl}acetate] | 5.50 | 
COC(=O)CS(=O)(=O)c1ccc([C@@H](C)NC(=O)c2cc(-c3cccc4cc[nH]c34)nn2C)cc1 [Example 02-006, methyl 2-{4-[(1R)-1-{[3-(1H-indol-7-yl)-1-methyl-1H-pyrazol-5-yl]formamido}ethyl]benzenesulfonyl}acetate] | 5.90 | 
COC(=O)CS(=O)(=O)c1ccc([C@H](C)NC(=O)c2cc(-c3ccccc3)nn2C)cn1 [Example 02-009, methyl 2-({5-[(1S)-1-[(1-methyl-3-phenyl-1H-pyrazol-5-yl)formamido]ethyl]pyridin-2-yl}sulfonyl)acetate] | < 4.00 | 
COc1cc(-c2cc(C(=O)N[C@H](C)c3ccc(S(=O)(=O)CC(=O)OC(C)C)cc3)n(C)n2)ccc1F [Example 02-012, propan-2-yl 2-{4-[(1R)-1-{[3-(4-fluoro-3-methoxyphenyl)-1-methyl-1H-pyrazol-5-yl]formamido}ethyl]benzenesulfonyl}acetate] | 5.43 | 
COc1cc(-c2cc(C(=O)N[C@H](C)c3ccc(S(=O)(=O)CC(=O)OC(C)C)cc3)n(C)n2)ccc1Cl [Example 02-013, propan-2-yl 2-{4-[(1R)-1-{[3-(4-chloro-3-methoxyphenyl)-1-methyl-1H-pyrazol-5-yl]formamido}ethyl]benzenesulfonyl}acetate] | 5.21 | 
CC(C)OC(=O)CS(=O)(=O)c1ccc([C@@H](C)NC(=O)c2cc(-c3ccc(Cl)c(Cl)c3)nn2C)cc1 [Example 02-014, propan-2-yl 2-{4-[(1R)-1-{[3-(3,4-dichlorophenyl)-1-methyl-1H-pyrazol-5-yl]formamido}ethyl]benzenesulfonyl}acetate] | 4.13 | 
Cc1cc(-c2cc(C(=O)N[C@H](C)c3ccc(S(=O)(=O)CC(=O)OC(C)C)cc3)n(C)n2)ccc1F [Example 02-015, propan-2-yl 2-{4-[(1R)-1-{[3-(4-fluoro-3-methylphenyl)-1-methyl-1H-pyrazol-5-yl]formamido}ethyl]benzenesulfonyl}acetate] | 5.26 | 
CC(C)OC(=O)CS(=O)(=O)c1ccc([C@@H](C)NC(=O)c2cc(-c3ccc(F)c(F)c3)nn2C)cc1 [Example 02-016, propan-2-yl 2-{4-[(1R)-1-{[3-(3,4-difluorophenyl)-1-methyl-1H-pyrazol-5-yl]formamido}ethyl]benzenesulfonyl}acetate] | < 4.70 | 
CC(C)OC(=O)CS(=O)(=O)c1ccc([C@@H](CO)NC(=O)c2cc(-c3ccc(F)cc3)nn2C)cc1 [Example 02-017, propan-2-yl 2-{4-[(1S)-1-{[3-(4-fluorophenyl)-1-methyl-1H-pyrazol-5-yl]formamido}-2-hydroxyethyl]benzenesulfonyl}acetate] | 5.11 | 
Cc1cc(Cl)c2cc(C(=O)N[C@H](C)c3ccc(S(=O)(=O)CC(=O)O)cc3)n(C)c2c1C [Example 03-003, 2-{4-[(1R)-1-[(4-chloro-1,6,7-trimethyl-1H-indol-2-yl)formamido]ethyl]benzenesulfonyl}acetic acid] | 7.89 | 7.66
C[C@@H](NC(=O)c1cc2c(Cl)cc(-c3cnn(C)c3)cc2n1C)c1ccc(S(=O)(=O)CC(=O)O)cc1 [Example 03-004, 2-{4-[(1R)-1-{[4-chloro-1-methyl-6-(1-methyl-1H-pyrazol-4-yl)-1H-indol-2-yl]formamido}ethyl]benzenesulfonyl}acetic acid] | 7.70 | 7.54
C#Cc1cc(Cl)c2cc(C(=O)NC(C)c3ccc(S(=O)(=O)CC(=O)O)cc3)n(C)c2c1 (stereo not shown) [Example 03-007, 2-(4-{1-[(4-chloro-6-ethynyl-1-methyl-1H-indol-2-yl)formamido]ethyl}benzenesulfonyl)acetic acid] | 7.54 | 
CC(NC(=O)c1cc2c(Cl)cc(I)cc2n1C)c1ccc(S(=O)(=O)CC(=O)O)cc1 (stereo not shown) [Example 03-008, 2-(4-{1-[(4-chloro-6-iodo-1-methyl-1H-indol-2-yl)formamido]ethyl}benzenesulfonyl)acetic acid] | 7.62 | 
Cc1nc2c(cc(C(=O)N[C@H](C)c3ccc(S(=O)(=O)CC(=O)O)cc3)n2C)c(Cl)c1Cl [Example 03-010, 2-{4-[(1R)-1-({4,5-dichloro-1,6-dimethyl-1H-pyrrolo[2,3-b]pyridin-2-yl}formamido)ethyl]benzenesulfonyl}acetic acid] | 6.77 | 
Cc1cc2c(cc(C(=O)N[C@H](CO)c3ccc(S(=O)(=O)CC(=O)O)cc3)n2C)c(F)c1F [Example 03-012, 2-{4-[(1S)-1-[(4,5-difluoro-1,6-dimethyl-1H-indol-2-yl)formamido]-2-hydroxyethyl]benzenesulfonyl}acetic acid] | 8.10 | 7.77
Cc1cc(Cl)c2cc(C(=O)N[C@H](CO)c3ccc(S(=O)(=O)CC(=O)O)cc3)n(C)c2n1 [Example 03-013, 2-{4-[(1S)-1-({4-chloro-1,6-dimethyl-1H-pyrrolo[2,3-b]pyridin-2-yl}formamido)-2-hydroxyethyl]benzenesulfonyl}acetic acid] | 7.46 | 

SMILES | pIC50 [1] | pIC50 [2]
Cc1cc2c(cc(C(=O)N[C@H](C)c3ccc(S(=O)(=O)CC(=O)O)cc3)n2C)c(Cl)c1F [Example 03-014, 2-{4-[(1R)-1-[(4-chloro-5-fluoro-1,6-dimethyl-1H-indol-2-yl)formamido]ethyl]benzenesulfonyl}acetic acid] | 8.30 | 8.15
Cc1cc(Cl)c2cc(C(=O)N[C@H](C)c3ccc(S(=O)(=O)CC(=O)O)cc3)n(C)c2n1 [Example 03-015, 2-{4-[(1R)-1-({4-chloro-1,6-dimethyl-1H-pyrrolo[2,3-b]pyridin-2-yl}formamido)ethyl]benzenesulfonyl}acetic acid] | 7.39 | 
Cc1cc2c(cc(C(=O)N[C@H](CO)c3ccc(S(=O)(=O)CC(=O)O)cc3)n2C)c(Cl)c1F [Example 03-016, 2-{4-[(1S)-1-[(4-chloro-5-fluoro-1,6-dimethyl-1H-indol-2-yl)formamido]-2-hydroxyethyl]benzenesulfonyl}acetic acid] | 8.30 | 8.15
CN1CCN(c2cc(Cl)c3cc(C(=O)N[C@H](CO)c4ccc(S(=O)(=O)CC(=O)O)cc4)n(C)c3c2)CC1 [Example 03-017, 2-{4-[(1S)-1-{[4-chloro-1-methyl-6-(4-methylpiperazin-1-yl)-1H-indol-2-yl]formamido}-2-hydroxyethyl]benzenesulfonyl}acetic acid] | 7.40 | 6.84
C[C@@H](NC(=O)c1cc2c(Cl)cc(N3CCN(C)CC3)cc2n1C)c1ccc(S(=O)(=O)CC(=O)O)cc1 [Example 03-018, 2-{4-[(1R)-1-{[4-chloro-1-methyl-6-(4-methylpiperazin-1-yl)-1H-indol-2-yl]formamido}ethyl]benzenesulfonyl}acetic acid] | 7.08 | 6.53
C[C@@H](NC(=O)c1cc(-c2ccccc2)nn1C)c1ccc(S(=O)(=O)CC(=O)O)cc1 [Example 04-001, 2-{4-[(1R)-1-[(1-methyl-3-phenyl-1H-pyrazol-5-yl)formamido]ethyl]benzenesulfonyl}acetic acid] | 6.84 | 
C[C@@H](NC(=O)c1cc(-c2ccc(F)cc2)nn1C)c1ccc(S(=O)(=O)CC(=O)O)cc1 [Example 04-002, 2-{4-[(1R)-1-{[3-(4-fluorophenyl)-1-methyl-1H-pyrazol-5-yl]formamido}ethyl]benzenesulfonyl}acetic acid] | 7.12 | 
C[C@@H](NC(=O)c1cc(-c2cccc3cc[nH]c23)nn1C)c1ccc(S(=O)(=O)CC(=O)O)cc1 [Example 04-003, 2-{4-[(1R)-1-{[3-(1H-indol-7-yl)-1-methyl-1H-pyrazol-5-yl]formamido}ethyl]benzenesulfonyl}acetic acid] | 7.28 | 7.06
Cn1nc(-c2ccc(F)cc2)cc1C(=O)N[C@H](CO)c1ccc(S(=O)(=O)CC(=O)O)cc1 [Example 04-004, 2-{4-[(1S)-1-{[3-(4-fluorophenyl)-1-methyl-1H-pyrazol-5-yl]formamido}-2-hydroxyethyl]benzenesulfonyl}acetic acid] | 6.76 | 6.52
COC(=O)C(C)(C)S(=O)(=O)c1ccc([C@@H](C)NC(=O)c2cc3cc(Cl)ccc3n2C)cc1 [Example 05-002, methyl 2-{4-[(1R)-1-[(5-chloro-1-methyl-1H-indol-2-yl)formamido]ethyl]benzenesulfonyl}-2-methylpropanoate] | 4.48 | 
COC(=O)C(C)S(=O)(=O)c1ccc([C@@H](C)NC(=O)c2cc3cc(Cl)ccc3n2C)cc1 (stereo partly drawn) [Example 05-006, methyl 2-{4-[(1R)-1-[(5-chloro-1-methyl-1H-indol-2-yl)formamido]ethyl]benzenesulfonyl}propanoate] | 5.52 | 
COC(=O)C(C)(C)S(=O)(=O)c1ccc([C@@H](C)NC(=O)c2cc3c(Cl)cc(C)cc3n2C)cc1 [Example 05-007, methyl 2-{4-[(1R)-1-[(4-chloro-1,6-dimethyl-1H-indol-2-yl)formamido]ethyl]benzenesulfonyl}-2-methylpropanoate] | 5.34 | 
COC(=O)C1(S(=O)(=O)c2ccc([C@@H](C)NC(=O)c3cc4c(Cl)cc(C)cc4n3C)cc2)CCCC1 [Example 05-008, methyl 1-{4-[(1R)-1-[(4-chloro-1,6-dimethyl-1H-indol-2-yl)formamido]ethyl]benzenesulfonyl}cyclopentane-1-carboxylate] | 4.74 | 
CCCC(C(=O)OC)S(=O)(=O)c1ccc([C@@H](C)NC(=O)c2cc3c(Cl)cc(C)cc3n2C)cc1 (stereo partly drawn) [Example 05-015, methyl 2-{4-[(1R)-1-[(4-chloro-1,6-dimethyl-1H-indol-2-yl)formamido]ethyl]benzenesulfonyl}pentanoate] | 5.46 | 
CCOC(=O)C(C)(C)S(=O)(=O)c1ccc([C@@H](C)NC(=O)c2cc3c(Cl)c(Cl)c(C)nc3n2C)cc1 [Example 05-016, ethyl 2-{4-[(1R)-1-({4,5-dichloro-1,6-dimethyl-1H-pyrrolo[2,3-b]pyridin-2-yl}formamido)ethyl]benzenesulfonyl}-2-methylpropanoate] | < 4.00 | 
